The target in assay [1] is T1, Smon0121-Smon0122/Smon0120-Smon0120 (Streptobacillus moniliformis, UniProt D1AWD7).
T1 construct: gene Smon_0120
To be noted: in presence of Smon0123 and disaccharide ligands.

The target in assay [2] is T2, Smon0123 (full-length) (Streptobacillus moniliformis, UniProt D1AWE0).
T2 construct: gene Smon_0123; full-length protein, expressed in E. coli, purified by TALON, Resource Q and Superdex 200; tag not described; about 57 kDa, monomer
The assay is described as follows: intrinsic tryptophan fluorescence titration. The format is binding. To be noted: 0.1 μM protein, 0-20 μM ligand, excitation 280 nm.

For assay [3], the target named is T3, Smon0123 (N-18/C-5) (Streptobacillus moniliformis, UniProt D1AWE0).
T3 construct: gene Smon_0123; N-terminal 18 and C-terminal 5 residues truncated (starts Met1-Lys19), expressed in E. coli, purified by DEAE and Superdex 200
T3 sequence (D1AWE0 entry or part of it): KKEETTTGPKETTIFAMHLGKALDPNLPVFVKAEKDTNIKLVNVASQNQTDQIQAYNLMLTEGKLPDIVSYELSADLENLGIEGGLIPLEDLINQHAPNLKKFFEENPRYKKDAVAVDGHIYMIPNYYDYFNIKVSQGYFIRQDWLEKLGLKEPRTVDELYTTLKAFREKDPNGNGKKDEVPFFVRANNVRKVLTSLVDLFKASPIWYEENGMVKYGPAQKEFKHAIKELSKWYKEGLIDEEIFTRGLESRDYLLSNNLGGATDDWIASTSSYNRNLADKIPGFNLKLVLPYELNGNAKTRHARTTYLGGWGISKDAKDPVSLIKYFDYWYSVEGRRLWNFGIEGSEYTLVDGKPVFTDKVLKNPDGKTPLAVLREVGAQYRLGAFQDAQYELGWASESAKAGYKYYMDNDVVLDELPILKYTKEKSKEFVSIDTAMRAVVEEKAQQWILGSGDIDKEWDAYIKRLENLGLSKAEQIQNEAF
The experiment in a line: X-ray crystallography, […] Å. The format is binding. The following applies: pH 7.5, 20 °C, calcium bound; cleft between N and C domains.

The target in assay [4] is T3, Smon0123 (N-18/C-5). The assay is described as follows: X-ray crystallography, […] Å. The format is binding. To be noted: pH 7.5; crystallised with CΔ4S6S, CΔ4S found in the cleft (contaminant or desulfation); construct printed only as Smon0123; not deposited.

Consider three molecules from article PMC5717064, “Alternative substrate-bound conformation of bacterial solute-binding protein involved in the import of mammalian host glycosaminoglycans” (Scientific Reports, 2017).

T1 sequence (D1AWD7 entry or part of it): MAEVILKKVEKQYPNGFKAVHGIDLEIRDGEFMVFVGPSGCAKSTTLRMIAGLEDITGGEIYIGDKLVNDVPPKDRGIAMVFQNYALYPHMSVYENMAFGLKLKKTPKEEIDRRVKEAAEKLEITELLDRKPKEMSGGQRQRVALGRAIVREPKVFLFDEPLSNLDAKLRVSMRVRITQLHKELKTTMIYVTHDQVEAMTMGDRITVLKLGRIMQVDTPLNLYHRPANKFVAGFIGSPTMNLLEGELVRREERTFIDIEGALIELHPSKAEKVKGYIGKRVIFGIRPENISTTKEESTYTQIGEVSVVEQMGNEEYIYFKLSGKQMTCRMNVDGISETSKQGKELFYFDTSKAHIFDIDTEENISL
T1 sequence (D1AWD8 entry or part of it, further chain): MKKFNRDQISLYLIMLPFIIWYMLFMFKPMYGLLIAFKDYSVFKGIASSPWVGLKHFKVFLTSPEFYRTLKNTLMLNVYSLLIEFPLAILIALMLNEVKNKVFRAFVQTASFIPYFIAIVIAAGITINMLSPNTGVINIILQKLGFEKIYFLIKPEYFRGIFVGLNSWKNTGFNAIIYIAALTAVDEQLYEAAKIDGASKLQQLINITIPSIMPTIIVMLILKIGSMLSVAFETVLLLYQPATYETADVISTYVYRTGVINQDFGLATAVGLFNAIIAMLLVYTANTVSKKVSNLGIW
T1 sequence (D1AWE0 entry or part of it, further chain): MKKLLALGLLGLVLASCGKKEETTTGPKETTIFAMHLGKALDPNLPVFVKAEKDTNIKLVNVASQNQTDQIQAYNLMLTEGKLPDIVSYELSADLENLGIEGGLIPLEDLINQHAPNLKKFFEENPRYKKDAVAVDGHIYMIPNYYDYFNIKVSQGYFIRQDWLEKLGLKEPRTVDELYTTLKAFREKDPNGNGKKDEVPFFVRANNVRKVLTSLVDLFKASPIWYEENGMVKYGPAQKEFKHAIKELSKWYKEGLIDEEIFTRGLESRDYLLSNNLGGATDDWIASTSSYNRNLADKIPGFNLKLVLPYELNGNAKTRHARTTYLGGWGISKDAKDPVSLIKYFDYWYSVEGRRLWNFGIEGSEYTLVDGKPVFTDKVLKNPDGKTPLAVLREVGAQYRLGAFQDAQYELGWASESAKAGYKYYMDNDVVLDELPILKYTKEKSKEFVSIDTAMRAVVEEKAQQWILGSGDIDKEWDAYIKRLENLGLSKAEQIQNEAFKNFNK
T1 sequence (D1AWD9 entry or part of it, further chain): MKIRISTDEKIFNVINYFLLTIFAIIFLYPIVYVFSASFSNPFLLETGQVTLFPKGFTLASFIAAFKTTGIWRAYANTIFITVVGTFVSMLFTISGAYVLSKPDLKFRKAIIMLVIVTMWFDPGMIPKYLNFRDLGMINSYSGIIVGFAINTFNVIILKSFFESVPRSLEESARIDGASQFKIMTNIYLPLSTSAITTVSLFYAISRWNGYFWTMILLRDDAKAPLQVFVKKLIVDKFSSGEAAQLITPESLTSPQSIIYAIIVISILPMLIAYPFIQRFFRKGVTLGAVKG
T2 sequence (D1AWE0 entry or part of it): as the sequence (D1AWE0 entry or part of it, further chain) above

On to `Nc1ncnc2c1ncn2[C@@H]1O[C@H](COP(=O)(O)OP(=O)(O)OP(=O)(O)O)[C@@H](O)[C@H]1O` [ATP], for which the “molybdenum blue phosphate release, proteoliposomes” value in assay [1] was “phosphate ion concentration generated through ATP hydrolysis in the presence of Smon0123 and ligands”.

`CC(=O)N[C@H]1C(O)O[C@H](COS(=O)(=O)O)[C@H](OS(=O)(=O)O)[C@@H]1O[C@@H]1OC(C(=O)O)=C[C@H](O)[C@H]1O` (stereo partly shown) [CΔ4S6S] came in with a Kd in assay [2] of 3.86 ± 0.243 µM. In assay [3], the “X-ray crystallography, 1.95 Å” value was “The coordinates and structure factors of Smon0123/CΔ4S6S have been deposited in the Protein Data Bank”.

For `CC(=O)N[C@H]1C(O)O[C@H](CO)[C@H](OS(=O)(=O)O)[C@@H]1O[C@@H]1OC(C(=O)O)=C[C@H](O)[C@H]1O` (stereo partly shown) [CΔ4S], the “X-ray crystallography, 2.50 Å” value in assay [4] is “the protein was found to interact with C∆4S but not C∆4S6S in the cleft”.

In general, Kd refers to the concentration at which binding is half-saturated.
